Data published in patent publication US12281149B2, “Modulators of G-protein coupled receptors” (priority 2021, dated 2025).
*1 amine or outer side, *2 acyl side, *3 side chain or, on linkers, in order; H or OH if unused. Where a SMILES comes first, the peptide text is derived from it. Side-chain parts run from the residue outwards. [ ]: non-standard residue; d: D form. The star is where a group is joined. Isobutyryl(2-(3-CN-5-F-Ph)) = CC(C)(C(=O)*)c1cc(F)cc(C#N)c1; C20 diacid = O=C(O)CCCCCCCCCCCCCCCCCCC(=O)*; γGlu = O=C(O)[C@H](CCC(=O)[*:2])N[*:1]; Phe(2-F) = N[C@@H](Cc1ccccc1F)C(=O)O; αMeF = C[C@](N)(Cc1ccccc1)C(=O)O; X26 = O=C(C1(c2ccccc2)CCCC1)*; X60 = O=C(C1(c2cccnc2)CCCC1)*; X64 = CC(C)(C(=O)*)c1ccccn1; AEEA = NCCOCCOCC(=O)O; Aib = CC(C)(N)C(=O)O; βAla = NCCC(=O)O

Assays:
Assay type in all cases: cell-based
GIP receptor [1] = target: T1, GIP receptor (Homo sapiens, UniProt P48546); experiment: PathHunter β-arrestin assay, GIP receptor; parameters: host or cells: PathHunter CHO-K1 GIPR β-Arrestin Cell Line; settings: β-arrestin-2 recruitment, PathHunter CHO-K1 GIPR β-Arrestin Cell Line, 90 min at 37° C.; normalized to GIP; read-out: GIPR β Arrestin EC50
T1 sequence (P48546 22-466): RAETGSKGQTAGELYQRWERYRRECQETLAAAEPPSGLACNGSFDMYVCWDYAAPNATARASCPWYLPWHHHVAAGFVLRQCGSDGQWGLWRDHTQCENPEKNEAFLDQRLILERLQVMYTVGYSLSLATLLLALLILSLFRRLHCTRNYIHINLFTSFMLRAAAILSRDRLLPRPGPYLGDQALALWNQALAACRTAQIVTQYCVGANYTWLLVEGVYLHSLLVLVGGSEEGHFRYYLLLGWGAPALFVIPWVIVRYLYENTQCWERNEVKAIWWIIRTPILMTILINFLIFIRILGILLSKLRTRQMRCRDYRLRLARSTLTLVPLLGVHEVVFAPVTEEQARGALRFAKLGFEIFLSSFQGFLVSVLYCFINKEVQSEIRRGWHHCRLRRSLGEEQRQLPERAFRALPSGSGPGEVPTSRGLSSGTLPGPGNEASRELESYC

GIP receptor [2] = target: T1, GIP receptor; experiment: HitHunter cAMP assay, GIP receptor; settings: for EC50: CHO cells stably expressing GIP receptor, cAMP accumulation, 30 min, read-out: EC50 GIP-1R; for Emax: CHO cells, cAMP, normalized to maximum signal from GIP (high) and DMSO (low), read-out: Emax GIP-1R
GLP-1 receptor [3] = target: T2, GLP-1 receptor (Homo sapiens, UniProt P43220); experiment: PathHunter β-arrestin assay, GLP-1 receptor; parameters: host or cells: PathHunter CHO-K1 GLP1R β-Arrestin Cell Line; settings: β-arrestin-2 recruitment, PathHunter CHO-K1 GLP1R β-Arrestin Cell Line, 90 min at 37° C.; normalized to GLP-1; read-out: GLP-1R β Arrestin EC50
T2 sequence (P43220 24-463): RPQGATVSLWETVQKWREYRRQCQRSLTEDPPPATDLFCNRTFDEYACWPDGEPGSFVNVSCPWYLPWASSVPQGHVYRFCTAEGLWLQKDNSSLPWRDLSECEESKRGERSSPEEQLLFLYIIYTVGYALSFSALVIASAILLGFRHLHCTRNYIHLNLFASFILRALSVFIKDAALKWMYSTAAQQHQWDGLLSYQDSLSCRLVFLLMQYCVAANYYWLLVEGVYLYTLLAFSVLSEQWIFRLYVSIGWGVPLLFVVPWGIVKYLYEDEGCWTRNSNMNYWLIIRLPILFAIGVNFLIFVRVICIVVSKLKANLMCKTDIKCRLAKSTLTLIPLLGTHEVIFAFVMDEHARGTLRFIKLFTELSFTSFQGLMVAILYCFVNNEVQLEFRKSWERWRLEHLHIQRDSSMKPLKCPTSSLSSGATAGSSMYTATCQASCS

GLP-1 receptor [4] = target: T2, GLP-1 receptor; experiment: HitHunter cAMP assay, GLP-1 receptor; settings: for EC50: CHO cells stably expressing human GLP-1 receptor, cAMP accumulation, 30 min, read-out: EC50 GLP-1R; for Emax: CHO cells, cAMP, normalized to maximum signal from GLP-1 (high) and DMSO (low), read-out: Emax GLP-1R

SMILES | EC50 (GIP receptor [1]) [nM] | EC50 (GIP receptor [2]) [nM] | Emax (GIP receptor [2]) [%] | EC50 (GLP-1 receptor [3]) [nM] | EC50 (GLP-1 receptor [4]) [nM] | Emax (GLP-1 receptor [4]) [%]
CC[C@H](C)[C@H](NC(=O)[C@H](CC(C)C)NC(=O)[C@H](Cc1c[nH]c2ccccc12)NC(=O)[C@H](CCC(N)=O)NC(=O)[C@@H](NC(=O)[C@H](Cc1ccccc1)NC(=O)[C@H](C)NC(=O)[C@H](CCCCNC(=O)COCCOCCNC(=O)COCCOCCNC(=O)CC[C@H](NC(=O)CCCCCCCCCCCCCCCCCCC(=O)O)C(=O)O)NC(=O)[C@H](CCC(N)=O)NC(=O)[C@H](C)NC(=O)[C@@H](NC(=O)[C@H](CCCCN)NC(=O)[C@H](CC(=O)O)NC(=O)[C@H](CC(C)C)NC(=O)C(C)(C)NC(=O)[C@@H](NC(=O)[C@H](CO)NC(=O)[C@H](Cc1ccc(O)cc1)NC(=O)[C@H](CC(=O)O)NC(=O)[C@H](CO)NC(=O)[C@@H](NC(=O)[C@H](Cc1ccccc1F)NC(=O)[C@@H](NC(=O)CNC(=O)[C@H](CCC(=O)O)NC(=O)CCNC(=O)C(C)(C)c1cc(F)cc(C#N)c1)[C@@H](C)O)[C@@H](C)O)[C@@H](C)CC)[C@@H](C)CC)C(C)C)C(=O)N[C@@H](C)C(=O)NCC(=O)NCC(=O)N1CCC[C@H]1C(=O)N[C@@H](CO)C(=O)N[C@@H](CO)C(=O)NCC(=O)N[C@@H](C)C(=O)N1CCC[C@H]1C(=O)N1CCC[C@H]1C(=O)N1CCC[C@H]1C(=O)N[C@@H](CO)C(N)=O [Compound 233] ({Isobutyryl(2-(3-CN-5-F-Ph))-βAla}-EGT[Phe(2-F)]TSDYSI[Aib]LDKIAQK([AEEA-AEEA-γGlu-C20 diacid])AFVQWLIAGGPSSGAPPPS-NH2) | < 1000 | 0.1 to 1 | 109 | > 1000 | 0.1 to 1 | 121
CC[C@H](C)[C@H](NC(=O)[C@H](CC(C)C)NC(=O)[C@H](Cc1c[nH]c2ccccc12)NC(=O)[C@H](CCC(N)=O)NC(=O)[C@@H](NC(=O)[C@H](Cc1ccccc1)NC(=O)[C@H](C)NC(=O)[C@H](CCCCNC(=O)COCCOCCNC(=O)COCCOCCNC(=O)CC[C@H](NC(=O)CCCCCCCCCCCCCCCCCCC(=O)O)C(=O)O)NC(=O)[C@H](CCC(N)=O)NC(=O)[C@H](C)NC(=O)[C@@H](NC(=O)[C@H](CCCCN)NC(=O)[C@H](CC(=O)O)NC(=O)[C@H](CC(C)C)NC(=O)C(C)(C)NC(=O)[C@@H](NC(=O)[C@H](CO)NC(=O)[C@H](Cc1ccc(O)cc1)NC(=O)[C@H](CC(=O)O)NC(=O)[C@H](CO)NC(=O)[C@@H](NC(=O)[C@](C)(Cc1ccccc1)NC(=O)[C@@H](NC(=O)CNC(=O)[C@H](CCC(=O)O)NC(=O)CCNC(=O)C1(c2cccnc2)CCCC1)[C@@H](C)O)[C@@H](C)O)[C@@H](C)CC)[C@@H](C)CC)C(C)C)C(=O)N[C@@H](C)C(=O)NCC(=O)NCC(=O)N1CCC[C@H]1C(=O)N[C@@H](CO)C(=O)N[C@@H](CO)C(=O)NCC(=O)N[C@@H](C)C(=O)N1CCC[C@H]1C(=O)N1CCC[C@H]1C(=O)N1CCC[C@H]1C(=O)N[C@@H](CO)C(N)=O [Compound 234] ({X60-βAla}-EGT[αMeF]TSDYSI[Aib]LDKIAQK([AEEA-AEEA-γGlu-C20 diacid])AFVQWLIAGGPSSGAPPPS-NH2) | < 1000 | 0.1 to 1 | 112 | > 1000 | 0.1 to 1 | 105
CC[C@H](C)[C@H](NC(=O)[C@H](CC(C)C)NC(=O)[C@H](Cc1c[nH]c2ccccc12)NC(=O)[C@H](CCC(N)=O)NC(=O)[C@@H](NC(=O)[C@H](Cc1ccccc1)NC(=O)[C@H](C)NC(=O)[C@H](CCCCNC(=O)COCCOCCNC(=O)COCCOCCNC(=O)CC[C@H](NC(=O)CCCCCCCCCCCCCCCCCCC(=O)O)C(=O)O)NC(=O)[C@H](CCC(N)=O)NC(=O)[C@H](C)NC(=O)[C@@H](NC(=O)[C@H](CCCCN)NC(=O)[C@H](CC(=O)O)NC(=O)[C@H](CC(C)C)NC(=O)C(C)(C)NC(=O)[C@@H](NC(=O)[C@H](CO)NC(=O)[C@H](Cc1ccc(O)cc1)NC(=O)[C@H](CC(=O)O)NC(=O)[C@H](CO)NC(=O)[C@@H](NC(=O)[C@](C)(Cc1ccccc1)NC(=O)[C@@H](NC(=O)CNC(=O)[C@H](CCC(=O)O)NC(=O)CCNC(=O)C(C)(C)c1cc(F)cc(C#N)c1)[C@@H](C)O)[C@@H](C)O)[C@@H](C)CC)[C@@H](C)CC)C(C)C)C(=O)N[C@@H](C)C(=O)NCC(=O)NCC(=O)N1CCC[C@H]1C(=O)N[C@@H](CO)C(=O)N[C@@H](CO)C(=O)NCC(=O)N[C@@H](C)C(=O)N1CCC[C@H]1C(=O)N1CCC[C@H]1C(=O)N1CCC[C@H]1C(=O)N[C@@H](CO)C(N)=O [Compound 235] ({Isobutyryl(2-(3-CN-5-F-Ph))-βAla}-EGT[αMeF]TSDYSI[Aib]LDKIAQK([AEEA-AEEA-γGlu-C20 diacid])AFVQWLIAGGPSSGAPPPS-NH2) | < 1000 | 0.1 to 1 | 108 | > 1000 | 0.1 to 1 | 122
CC[C@H](C)[C@H](NC(=O)[C@H](CC(C)C)NC(=O)[C@H](Cc1c[nH]c2ccccc12)NC(=O)[C@H](CCC(N)=O)NC(=O)[C@@H](NC(=O)[C@H](Cc1ccccc1)NC(=O)[C@H](C)NC(=O)[C@H](CCCCNC(=O)COCCOCCNC(=O)COCCOCCNC(=O)CC[C@H](NC(=O)CCCCCCCCCCCCCCCCCCC(=O)O)C(=O)O)NC(=O)[C@H](CCC(N)=O)NC(=O)[C@H](C)NC(=O)[C@@H](NC(=O)[C@H](CCCCN)NC(=O)[C@H](CC(=O)O)NC(=O)[C@H](CC(C)C)NC(=O)C(C)(C)NC(=O)[C@@H](NC(=O)[C@H](CO)NC(=O)[C@H](Cc1ccc(O)cc1)NC(=O)[C@H](CC(=O)O)NC(=O)[C@H](CO)NC(=O)[C@@H](NC(=O)[C@H](Cc1ccccc1)NC(=O)[C@@H](NC(=O)CNC(=O)[C@H](CCC(=O)O)NC(=O)CCNC(=O)C1(c2ccccc2)CCCC1)[C@@H](C)O)[C@@H](C)O)[C@@H](C)CC)[C@@H](C)CC)C(C)C)C(=O)N[C@@H](C)C(=O)NCC(=O)NCC(=O)N1CCC[C@H]1C(=O)N[C@@H](CO)C(=O)N[C@@H](CO)C(=O)NCC(=O)N[C@@H](C)C(=O)N1CCC[C@H]1C(=O)N1CCC[C@H]1C(=O)N1CCC[C@H]1C(=O)N[C@@H](CO)C(N)=O [Compound 236] ({X26-βAla}-EGTFTSDYSI[Aib]LDKIAQK([AEEA-AEEA-γGlu-C20 diacid])AFVQWLIAGGPSSGAPPPS-NH2) | > 1000 | 1 to 10 | 114 | > 1000 | 0.1 to 1 | 127
CC[C@H](C)[C@H](NC(=O)[C@H](CC(C)C)NC(=O)[C@H](Cc1c[nH]c2ccccc12)NC(=O)[C@H](CCC(N)=O)NC(=O)[C@@H](NC(=O)[C@H](Cc1ccccc1)NC(=O)[C@H](C)NC(=O)[C@H](CCCCNC(=O)COCCOCCNC(=O)COCCOCCNC(=O)CC[C@H](NC(=O)CCCCCCCCCCCCCCCCCCC(=O)O)C(=O)O)NC(=O)[C@H](CCC(N)=O)NC(=O)[C@H](C)NC(=O)[C@@H](NC(=O)[C@H](CCCCN)NC(=O)[C@H](CC(=O)O)NC(=O)[C@H](CC(C)C)NC(=O)C(C)(C)NC(=O)[C@@H](NC(=O)[C@H](CO)NC(=O)[C@H](Cc1ccc(O)cc1)NC(=O)[C@H](CC(=O)O)NC(=O)[C@H](CO)NC(=O)[C@@H](NC(=O)[C@H](Cc1ccccc1)NC(=O)[C@@H](NC(=O)CNC(=O)[C@H](CCC(=O)O)NC(=O)CCNC(=O)C(C)(C)c1ccccn1)[C@@H](C)O)[C@@H](C)O)[C@@H](C)CC)[C@@H](C)CC)C(C)C)C(=O)N[C@@H](C)C(=O)NCC(=O)NCC(=O)N1CCC[C@H]1C(=O)N[C@@H](CO)C(=O)N[C@@H](CO)C(=O)NCC(=O)N[C@@H](C)C(=O)N1CCC[C@H]1C(=O)N1CCC[C@H]1C(=O)N1CCC[C@H]1C(=O)N[C@@H](CO)C(N)=O [Compound 237] ({X64-βAla}-EGTFTSDYSI[Aib]LDKIAQK([AEEA-AEEA-γGlu-C20 diacid])AFVQWLIAGGPSSGAPPPS-NH2) | < 1000 | 1 to 10 | 91 | > 1000 | < 0.1 | 93
